From patent US11136317B2, “NADPH oxidase 4 inhibitors” (ACTELION PHARMACEUTICALS LTD, priority 2015, dated 2021)

Molecular target: T1, human NOX4 (Homo sapiens, UniProt Q9NPH5)
T1 construct: The full-length human NOX4 (NM_016931.3) transcript was cloned; expressed in transfected cells
T1 sequence (Q9NPH5 1-578): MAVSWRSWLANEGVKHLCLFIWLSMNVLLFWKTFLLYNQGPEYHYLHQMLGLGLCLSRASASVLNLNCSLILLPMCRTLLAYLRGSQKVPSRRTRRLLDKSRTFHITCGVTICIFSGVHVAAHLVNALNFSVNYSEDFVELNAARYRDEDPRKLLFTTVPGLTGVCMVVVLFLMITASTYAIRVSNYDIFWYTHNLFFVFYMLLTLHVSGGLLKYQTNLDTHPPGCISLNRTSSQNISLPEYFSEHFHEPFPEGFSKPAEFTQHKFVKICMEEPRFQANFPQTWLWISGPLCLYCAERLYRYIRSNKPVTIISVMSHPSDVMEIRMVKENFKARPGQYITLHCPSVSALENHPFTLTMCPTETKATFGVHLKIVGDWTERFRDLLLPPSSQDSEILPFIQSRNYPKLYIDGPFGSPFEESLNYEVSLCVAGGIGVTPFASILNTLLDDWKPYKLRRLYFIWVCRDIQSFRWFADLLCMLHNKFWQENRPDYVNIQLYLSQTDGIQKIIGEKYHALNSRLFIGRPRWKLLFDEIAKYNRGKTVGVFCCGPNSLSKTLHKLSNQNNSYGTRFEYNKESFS
T1 sequence (P13498 1-195 partner): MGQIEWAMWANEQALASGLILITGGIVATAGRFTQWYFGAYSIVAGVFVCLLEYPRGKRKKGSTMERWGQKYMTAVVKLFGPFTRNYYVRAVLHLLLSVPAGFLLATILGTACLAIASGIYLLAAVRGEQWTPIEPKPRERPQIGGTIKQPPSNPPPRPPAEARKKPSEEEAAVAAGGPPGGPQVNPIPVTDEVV
Assay: Amplex Red activity assay (cellular H2O2 formation in hNOX4 T-REx-293 cells)
Format: cell-based
Conditions: tet-induced 24 h, extracellular H2O2 by Amplex Red, 60 min 25° C., geometric mean if determined several times
How it was run: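 Tet-induced (1 μg/mL, 24 h) HEK293 T-REx cells stably expressing full-length human NOX4, 20 000 cells/well, exposed to compounds (10 concentrations, 50 μM to 100 nM; 1.25% DMSO) for 60 min at 25°C. Extracellular H2O2 detected by Amplex Red resorufin fluorescence (ex 550/em 600 nm) versus vehicle; IC50 calculated.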

| IC50 [nM] | SMILES |
| --- | --- |
| 1430 | O=C(Nc1ccc2oc(N3CCC(F)(F)CC3)nc2c1)c1ccc2c(c1)CCCO2 [Example 149, Chroman-6-carboxylic acid [2-(4,4-difluoro-piperidin-1-yl)-benzooxazol-5-yl]-amide] |
| 2200 | O=C(Nc1ccc2oc(N3CCCC(F)(F)C3)nc2c1)c1ccc2c(c1)CCCO2 [Example 150, Chroman-6-carboxylic acid [2-(3,3-difluoro-piperidin-1-yl)-benzooxazol-5-yl]-amide] |
| 1410 | O=C(Nc1ccc2oc(N3CCC(O)CC3)nc2c1)c1ccc2c(c1)CCCO2 [Example 151, Chroman-6-carboxylic acid [2-(4-hydroxy-piperidin-1-yl)-benzooxazol-5-yl]-amide] |
| 1350 | COC1CCN(c2nc3cc(NC(=O)c4ccc5c(c4)CCCO5)ccc3o2)CC1 [Example 152, Chroman-6-carboxylic acid [2-(4-methoxy-piperidin-1-yl)-benzooxazol-5-yl]-amide] |
| 1300 | O=C(Nc1ccc2oc(N3CCC4(CC3)COC4)nc2c1)c1ccc2c(c1)CCCO2 [Example 153, Chroman-6-carboxylic acid [2-(2-oxa-7-aza-spiro[3.5]non-7-yl)-benzooxazol-5-yl]-amide] |
| 1130 | O=C(Nc1ccc2oc(N3CCCC4(COC4)C3)nc2c1)c1ccc2c(c1)CCCO2 [Example 154, Chroman-6-carboxylic acid [2-(2-oxa-6-aza-spiro[3.5]non-6-yl)-benzooxazol-5-yl]-amide] |
| 756 | O=C(Nc1ccc2oc(N3CCOCC3)nc2c1)c1ccc2c(c1)CCCO2 [Example 155, Chroman-6-carboxylic acid (2-morpholin-4-yl-benzooxazol-5-yl)-amide] |
| 1790 | CN1CCN(c2nc3cc(NC(=O)c4ccc5c(c4)CCCO5)ccc3o2)CC1 [Example 156, Chroman-6-carboxylic acid [2-(4-methyl-piperazin-1-yl)-benzooxazol-5-yl]-amide] |
| 2030 | CCN(CC)c1nc2cc(NC(=O)c3ccc4c(c3)CCCO4)ccc2o1 [Example 157, Chroman-6-carboxylic acid (2-diethylamino-benzooxazol-5-yl)-amide] |
| 2860 | O=C(Nc1ccc2oc(N(C3CC3)C3COC3)nc2c1)c1ccc2c(c1)CCCO2 [Example 158, Chroman-6-carboxylic acid [2-(cyclopropyl-oxetan-3-yl-amino)-benzooxazol-5-yl]-amide] |
| 1480 | O=C(Nc1ccc2oc(N3CC(O)C3)nc2c1)c1ccc2c(c1)OCCO2 [Example 159, 2,3-Dihydro-benzo[1,4]dioxine-6-carboxylic acid [2-(3-hydroxy-azetidin-1-yl)-benzooxazol-5-yl]-amide] |
| 541 | O=C(Nc1ccc2oc(N3CCC34COC4)nc2c1)c1ccc2c(c1)OCCO2 [Example 160, 2,3-Dihydro-benzo[1,4]dioxine-6-carboxylic acid [2-(6-oxa-1-aza-spiro[3.3]hept-1-yl)-benzooxazol-5-yl]-amide] |
| 665 | O=C(Nc1ccc2oc(N3CCC34CCC4)nc2c1)c1ccc2c(c1)OCCO2 [Example 161, 2,3-Dihydro-benzo[1,4]dioxine-6-carboxylic acid [2-(1-aza-spiro[3.3]hept-1-yl)-benzooxazol-5-yl]-amide] |
| 954 | O=C(Nc1ccc2oc(N3CCC34CCOC4)nc2c1)c1ccc2c(c1)OCCO2 (centres unmarked) [Example 162, 2,3-Dihydro-benzo[1,4]dioxine-6-carboxylic acid [2-(6-oxa-1-aza-spiro[3.4]oct-1-yl)-benzooxazol-5-yl]-amide] |
| 1140 | O=C(Nc1ccc2oc(N3CCC34CCOCC4)nc2c1)c1ccc2c(c1)OCCO2 [Example 163, 2,3-Dihydro-benzo[1,4]dioxine-6-carboxylic acid [2-(7-oxa-1-aza-spiro[3.5]non-1-yl)-benzooxazol-5-yl]-amide] |
| 1280 | O=C(Nc1ccc2oc(N3CCCC3)nc2c1)c1ccc2c(c1)OCCO2 [Example 164, 2,3-Dihydro-benzo[1,4]dioxine-6-carboxylic acid (2-pyrrolidin-1-yl-benzooxazol-5-yl)-amide] |

| IC50 [nM] | SMILES |
| --- | --- |
| 764 | O=C(Nc1ccc2oc(N3CCCC34COC4)nc2c1)c1ccc2c(c1)OCCO2 [Example 165, 2,3-Dihydro-benzo[1,4]dioxine-6-carboxylic acid [2-(2-oxa-5-aza-spiro[3.4]oct-5-yl)-benzooxazol-5-yl]-amide] |
| 1500 | O=C(Nc1ccc2oc(N3CCCCC3)nc2c1)c1ccc2c(c1)OCCO2 [Example 166, 2,3-Dihydro-benzo[1,4]dioxine-6-carboxylic acid (2-piperidin-1-yl-benzooxazol-5-yl)-amide] |
| 1220 | O=C(Nc1ccc2oc(N3CCC(O)CC3)nc2c1)c1ccc2c(c1)OCCO2 [Example 167, 2,3-Dihydro-benzo[1,4]dioxine-6-carboxylic acid [2-(4-hydroxy-piperidin-1-yl)-benzooxazol-5-yl]-amide] |
| 1140 | O=C(Nc1ccc2oc(N3CCCC(F)(F)C3)nc2c1)c1ccc2c(c1)OCCO2 [Example 168, 2,3-Dihydro-benzo[1,4]dioxine-6-carboxylic acid [2-(3,3-difluoro-piperidin-1-yl)-benzooxazol-5-yl]-amide] |
| 793 | COC1CCN(c2nc3cc(NC(=O)c4ccc5c(c4)OCCO5)ccc3o2)CC1 [Example 169, 2,3-Dihydro-benzo[1,4]dioxine-6-carboxylic acid [2-(4-methoxy-piperidin-1-yl)-benzooxazol-5-yl]-amide] |
| 899 | O=C(Nc1ccc2oc(N3CCC(F)(F)CC3)nc2c1)c1ccc2c(c1)OCCO2 [Example 170, 2,3-Dihydro-benzo[1,4]dioxine-6-carboxylic acid [2-(4,4-difluoro-piperidin-1-yl)-benzooxazol-5-yl]-amide] |
| 792 | O=C(Nc1ccc2oc(N3CCCC4(COC4)C3)nc2c1)c1ccc2c(c1)OCCO2 [Example 171, 2,3-Dihydro-benzo[1,4]dioxine-6-carboxylic acid [2-(2-oxa-6-aza-spiro[3.5]non-6-yl)-benzooxazol-5-yl]-amide] |
| 8850 | O=C(Nc1ccc2oc(N3CCC4(CC3)COC4)nc2c1)c1ccc2c(c1)OCCO2 [Example 172, 2,3-Dihydro-benzo[1,4]dioxine-6-carboxylic acid [2-(2-oxa-7-aza-spiro[3.5]non-7-yl)-benzooxazol-5-yl]-amide] |
| 1420 | O=C(Nc1ccc2oc(N3CCOCC3)nc2c1)c1ccc2c(c1)OCCO2 [Example 173, 2,3-Dihydro-benzo[1,4]dioxine-6-carboxylic acid (2-morpholin-4-yl-benzooxazol-5-yl)-amide] |
| 1390 | CN1CCN(c2nc3cc(NC(=O)c4ccc5c(c4)OCCO5)ccc3o2)CC1 [Example 174, 2,3-Dihydro-benzo[1,4]dioxine-6-carboxylic acid [2-(4-methyl-piperazin-1-yl)-benzooxazol-5-yl]-amide] |
| 1350 | CCN(CC)c1nc2cc(NC(=O)c3ccc4c(c3)OCCO4)ccc2o1 [Example 175, 2,3-Dihydro-benzo[1,4]dioxine-6-carboxylic acid (2-diethylamino-benzooxazol-5-yl)-amide] |
| 2970 | O=C(Nc1ccc2oc(N(C3CC3)C3COC3)nc2c1)c1ccc2c(c1)OCCO2 [Example 176, 2,3-Dihydro-benzo[1,4]dioxine-6-carboxylic acid [2-(cyclopropyl-oxetan-3-yl-amino)-benzooxazol-5-yl]-amide] |
| 6870 | CN1CCOc2ccc(C(=O)Nc3ccc4oc(N5CC(O)C5)nc4c3)cc21 [Example 177, 4-Methyl-3,4-dihydro-2H-benzo[1,4]oxazine-6-carboxylic acid [2-(3-hydroxy-azetidin-1-yl)-benzooxazol-5-yl]-amide] |
| 21800 | CN1CCOc2ccc(C(=O)Nc3ccc4oc(N5CC(F)(F)C5)nc4c3)cc21 [Example 178, 4-Methyl-3,4-dihydro-2H-benzo[1,4]oxazine-6-carboxylic acid [2-(3,3-difluoro-azetidin-1-yl)-benzooxazol-5-yl]-amide] |
| 1740 | CN1CCOc2ccc(C(=O)Nc3ccc4oc(N5CCC56CCC6)nc4c3)cc21 [Example 179, 4-Methyl-3,4-dihydro-2H-benzo[1,4]oxazine-6-carboxylic acid [2-(1-aza-spiro[3.3]hept-1-yl)-benzooxazol-5-yl]-amide] |
| 1770 | CN1CCOc2ccc(C(=O)Nc3ccc4oc(N5CCC56COC6)nc4c3)cc21 [Example 180, 4-Methyl-3,4-dihydro-2H-benzo[1,4]oxazine-6-carboxylic acid [2-(6-oxa-1-aza-spiro[3.3]hept-1-yl)-benzooxazol-5-yl]-amide] |
